Measured values from patent US20130123208A1, “METHOD OF TREATING MULTIPLE SCLEROSIS WITH ADENOSINE RECEPTOR AGONISTS” (THE REGENTS OF THE UNIVERSITY OF COLORADO, a body …, priority 2010, published 2013).
“Also recorded” adds a separate entry of the source.

Experiments:
[1] = test system: rats with EAE; test: EAE model, survival curve (time to motor score 6 or higher); assay type: in vivo, Male Dark Agouti rats
From the text: In a separate group of rats from Example 1, MOG was intradermally administered as described above. […] The time at which motor score reached 6 or higher after the onset of motor symptoms is represented on the survival curve shown in FIG. 2. […] A single intrathecal injection of an A2A agonist, CGS21680, improved survival percentage in rats with EAE.

[2] = test system: neuropathic pain; details: duration of effect ~35 days; cited from earlier work
[3] = test system: rats with EAE (MOG-induced Experimental Autoimmune Encephalitis); test: EAE model, motor score after single intrathecal bolus
Description: The EAE model described above was used. Motor score was assessed three days before and daily post MOG administration (8.25 ug intradermally). At the onset of motor symptoms (partial tail paralysis, motor score 1) rats were randomly injected with an A2A agonist, CGS21680 (3-[4-[2-[[6-amino-9-[(2R,3R,4S,5S)-5-(ethylcarbamoyl)-3,4-dihydroxy-oxolan-2-yl]purin-2-yl]amino]ethyl]phenyl]propanoic acid) (10 μM) or vehicle.

[4] = test system: rat spines (EAE); test: FLAIR and T2-weighted MRI on rat spines in EAE; assay type: in vivo; details: ATL313 treated animals with preserved motor scores
Description: ATL313 (4-{3-[6-amino-9-(5-cyclopropylcarbamoyl-3,4-dihydroxy-tetrahydro-furan-2-yl)-9H-purin-2-yl]-prop-2-ynyl}-piperidine-1-carboxylic acid methyl ester) (single bolus 1 μM-not shown and 10 μM) was used in the EAE model as described above (8-9 rats/group). The change in motor symptoms and the survival curve for ATL313 (10 μM) are shown in FIGS. 4A and 4B, respectively. 1 μM ATL313 produced a reduction in motor score lasting approximately 10 days.

[5] = test system: OX-42 (microglial activation marker); test: Immunohistochemistry of the dorsal spinal cord, OX-42; assay type: in vivo, rats; details: motor score 6 or higher or 24 days post onset, vs vehicle, P<0.05 (FIG. 3)
[6] = test system: cd68 (classically activated macrophage marker); test: Immunohistochemistry of the dorsal spinal cord, cd68; assay type: in vivo, rats; details: motor score 6 or higher or 24 days post onset, vs vehicle, P<0.05 (FIG. 3)

SMILES | rats still alive ([1]; 10 μM intrathecal, at 70 days, with stabilized motor scores (FIG. 4B)) | survival rate ([1]; 10 μM single intrathecal injection, MOG+ATL313 vs MOG+vehicle (FIG. 4B)) | survival ([1]; FIG. 6 legend) | neuropathic pain [2] | duration of attenuation of motor effects of EAE, at worst ([3]; 5 ng intrathecal single bolus) | progression of motor impairment/dysfunction induced by EAE ([3]; 5 ng intrathecal single bolus at initial onset of motor impairment (FIG. 5A)) | number of animals where motor deterioration is arrested with no further progression ([3]; 5 ng intrathecal, first group (FIG. 5B)) | number of rats whose motor symptoms continued on the usual course at around day 35 ([3]; 5 ng intrathecal, second group (FIG. 5C)) | duration of reduction in motor score ([3]; 1 μM single intrathecal bolus) | duration of arrest of progression of motor score symptoms ([3]; 10 μM single intrathecal injection (FIG. 4A)) | duration of suppression of paralysis ([3]; FIG. 6 legend, other sub-group) | paralysis ([3]; FIG. 6 legend, surviving ATL313 rats) | MRI abnormalities (hyperintensity) of spine [4] | percentage of survival ([1]; 10 μM intrathecal at onset of motor symptoms, day 25, vs vehicle, P<0.05 (FIG. 2)) | OX-42 staining [5] | severity of motor symptoms (motor score) ([3]; 10 μM, single intrathecal injection at onset of motor symptoms, vs vehicle (FIG. 1)) | cd68 staining [6]
COC(=O)N1CCC(CC#Cc2nc(N)c3ncn([C@@H]4O[C@H](C(=O)NC5CC5)C(O)C4O)c3n2)CC1 (stereo in doubt) [ATL313, 4-{3-[6-amino-9-(5-cyclopropylcarbamoyl-3,4-dihydroxy-tetrahydro-furan-2-yl)-9H-purin-2-yl]-prop-2-ynyl}-piperidine-1-carboxylic acid methyl ester] | 6/9 | increased survival rate | markedly enhances survival | attenuates neuropathic pain | ~35 days | good attenuation of progression of motor impairment/dysfunction | 6 | 3 | approximately 10 days | > 80 days | ~4 week | arrests paralysis in every surviving ATL313 rat | only minimal abnormalities |  |  |  | 
CCNC(=O)[C@H]1O[C@@H](n2cnc3c(N)nc(NCCc4ccc(CCC(=O)O)cc4)nc32)[C@H](O)[C@@H]1O [CGS21680, 3-[4-[2-[[6-amino-9-[(2R,3R,4S,5S)-5-(ethylcarbamoyl)-3,4-dihydroxy-oxolan-2-yl]purin-2-yl]amino]ethyl]phenyl]propanoic acid, reference compound] |  |  |  |  |  |  |  |  |  |  |  |  |  | significant difference in percentage of survival | significant reduction | reduced the severity of motor symptoms; also recorded: attenuated motor symptoms | significant reduction
